Measured values as given in patent US20230129485A1, “SYSTEM AND METHOD FOR DETERMINING MATERIAL PROPERTIES OF MOLECULAR SYSTEMS FROM AN AB-INITIO PARAMETERIZED FORCE-FIELD” (InterX, Inc., priority 2021, published 2023).
Read-outs that look alike come from different tables or passages of the source.

Experiments:
[1] = Free energy of hydration by COSMO implicit solvent model (MolPro ver. 2012); details: absolute error vs Exp (hydration)
Procedure: (§1) Due to unavailability of free energy data for the original COSMO model, the free energies of solvation for the molecule dataset are calculated using MolPro ver. […] The comparisons to other implicit solvent models such as SMD, PCM and COSMO-RS are limited to the overlap of the molecules computed using QM-parameterized force field model. The free energies of hydration as predicted by these implicit solvent models (SMD, PCM) were received.

[2] = Free energy of solvation in cyclohexane predicted with the QM-parameterized force field model (ARROW FF), MD and PIMD; details: Table 4; for CHEX Arrow MD Error: error of MD cyclohexane solvation free energy vs experiment; for CHEX Arrow PIMD4 Error: error of PIMD4 cyclohexane solvation free energy vs experiment
Text: Cyclohexane (CHEX) is nonpolar and equilibrates relatively quickly.
(§2) Particle-Mesh Ewald (PME) algorithm was used to compute the electrostatic interactions. A 32×32×32 grid mesh and 5th power spline interpolation order can be used to compute the inverse PME sum. 9 Å cutoffs were used to compute the direct PME sum as well as the exchange and dispersion interactions. Bulk corrections were applied to account for distance cut-off of dispersion interactions. Solvation free energies were computed by decoupling the interactions between the solute and the solvent molecules. Electrostatic, exchange-repulsion and dispersion interactions were switched off simultaneously using a lambda-dependent scaling (a scaling factor power=2 was used) and a soft-coring algorithm (maximal soft-coring radius=1.5 Å, soft-coring radius scaling factor power=1). 15 lambda points unequally spaced (X=0, 0.05, 0.1, 0.2, 0.3, 0.4, 0.5, 0.6, 0.7, 0.75, 0.8, 0.85, 0.9, 0.95, 1.0) were used to decouple the solute-solvent intermolecular interactions.
(§3) In some simulations of the QM-parameterized force field molecular simulation process, energy minimization (10,000 steps) using the steepest descent algorithm was initially performed on all the simulation systems. This was followed by a 50 ps equilibration and 1 ns production runs in the isothermal-isobaric ensemble (NPT). […] Pressure was maintained at 1 atm using a MTTK barostat (relaxation time=5 ps). A Multiple Time Step (MTS) algorithm was used to integrate the equations of motion both for the classical and path-integral runs. […] The calculations were performed using the QM-parameterized force field model.
Using the QM-parameterized force field model, the QM-parameterized force field device can compute or predict the solvation free energies using both the Bennett acceptance ratio (BAR) and thermodynamic integration (TI) method with <dH/dλ> values interpolated by cubic splines.

[3] = CHEX/H2O partition coefficient, experimental, cited from earlier work; for Exp (log D): Table 3; for logD Exp (logD): Table 4
[4] = Free energy of hydration by Solvation Model Dielectric (SMD) implicit solvent model; details: absolute error vs Exp (hydration)
Procedure: as §1

[5] = implicit solvent model, values received; cited from earlier work
[6] = CHEX/H2O partition coefficient (log D) predicted with the QM-parameterized force field model (ARROW FF)
Text: In some simulations, the example QM-parameterized force-field molecular simulation process includes using the functional form of the bonded interactions, with force constants and equilibrium values fitted to QM energies at the MP2/aug-cc-pVTZ level of theory. In some simulations, solvents of water and cyclohexane are selected. Cyclohexane (CHEX) is nonpolar and equilibrates relatively quickly. Reliable experimental data for both CHEX solvation free energies, as well as for the CHEX/H2O partition coefficients are used in these simulations.
In some example simulations, solutes containing neutral chemical functional groups, for example carboxylic acids, alkanes, alkenes, aromatics, aldehydes, ketones, alcohols, amides, esters, thiols, sulfides, disulfides and heterocycles, are used. The simulations were performed independently by four groups using their own respective computational resources and architectures, and then averaged. FIGS. 9A-9C show solvation and hydration free energies predictions of various solutes, using the QM-parameterized force field model, in some embodiments.
The straight line is a line of agreement between experimental and simulated/predicted values, and the gray bar is the range or chemical accuracy. […] The molecules here are a subset of those in a) because only those with experimental values for CHEX solvation can be included.

[7] = experimental, cited from earlier work
[8] = implicit solvent model, values received; cited from earlier work; remark: listed apart in the source
[9] = Free energy of hydration predicted with the QM-parameterized force field model (ARROW FF), classical MD and PIMD simulation in a water box; details: for Arrow PIMD8 Error: absolute error vs Exp (hydration)
Text: For example, the example QM-parameterized force-field molecular simulation process 400 can use Bennett Acceptance Ratio (BAR) to compute the free energy of hydration/solvation of the molecule in water or any other solvent. In some implementations, the analysis of the molecular dynamics simulations includes analysis, predication, and visualization of ensemble properties of atoms/molecules from atomic and molecular trajectories using the optimized parameters of the QM-parameterized force field model (i.e., the quantum mechanics rule-based reasoning technique) and the QM-parameterized force field model.
as §2, with “In some simulations of the QM-parameterized force field molecular simulation process, the molecules were placed in a water or cyclohexane box of size 32×32×32 Å3. Particle-Mesh” for “Particle-Mesh”
as §3
Using the QM-parameterized force field model, the QM-parameterized force field device can compute or predict the solvation free energies using both the Bennett acceptance ratio (BAR) and thermodynamic integration (TI) method with <dH/dλ> values interpolated by cubic splines. […] FIG. 7A illustrates a <dH/dλ> dependence for desolvation of Anthracene in water. FIG. 7B illustrates accumulated statistical errors for TI calculations of AG desolvation of Anthracene in water.

[10] = Free energy of hydration by Polarizable Continuum Model (PCM); details: absolute error vs Exp (hydration)
Procedure: as §1

[11] = Free energy of hydration by COSMO-RS
Procedure: as §1

[12] = experimental, cited from earlier work; remark: listed apart in the source
[13] = Table 5; free energy of hydration, GAFF prediction taken from literature; cited from earlier work
[14] = Table 5; free energy of hydration, AMOEBA prediction taken from literature; cited from earlier work
[15] = Free energy of hydration predicted by polarizable AMOEBA force field, from literature; details: Table 5; error of AMOEBA hydration free energy vs experiment
[16] = Free energy of hydration predicted by General Amber Force Field (GAFF), from literature; details: Table 5; error of GAFF hydration free energy vs experiment
[17] = Table 3, free energy of hydration
[18] = Table 4, neutral amino-acid analogues
[19] = Table 3, absolute error of MD hydration free energy vs experiment
[20] = Table 3, absolute error of PIMD8 hydration free energy vs experiment
[21] = Table 4, error of MD hydration free energy vs experiment
[22] = Table 4, error of PIMD8 hydration free energy vs experiment
[23] = Table 3, free energy of solvation in cyclohexane
[24] = Table 4, solvation free energy in cyclohexane

| SMILES | COSMO/Molpro Error [1] | CHEX Arrow MD Error [2] | CHEX Arrow PIMD4 Error [2] | Exp (log D) [3] | logD Exp (logD) [3] | SMD Error [4] | log D Arrow MD Error [6] | log D Arrow PIMD Error [6] | logD Arrow MD Error [6] | logD Arrow PIMD Error [6] | water Exp (hydration) [7, 17] | water Exp (hydration) [7, 18] | water Arrow MD Error [9, 19] | water Arrow PIMD8 Error [9, 20] | water Arrow MD Error [9, 21] | water Arrow PIMD8 Error [9, 22] | Arrow PIMD8 Error [9] | COSMO-RS error [11] | CHEX Exp (solvation) [12, 23] | CHEX Exp (solvation) [12, 24] | also measured |
| --- | --- | --- | --- | --- | --- | --- | --- | --- | --- | --- | --- | --- | --- | --- | --- | --- | --- | --- | --- | --- | --- |
| CCCCN [butanamine] | 6.49 kJ/mol | 0.25 kJ/mol | 0.25 kJ/mol | −0.23 | −0.23 | 3.1 kJ/mol | 0.81 | 0.16 | 0.81 | 0.16 | -17.7 kJ/mol | -17.7 kJ/mol | 4.9 kJ/mol | 1.17 kJ/mol | 4.9 kJ/mol | 1.17 kJ/mol | 1.17 kJ/mol | 0.46 kJ/mol | -16.4 kJ/mol | -16.4 kJ/mol | PCM free energy of hydration [5]: -11.7 kJ/mol; SMD free energy of hydration [8]: -14.6 kJ/mol; PCM Error [10]: 6.02 kJ/mol |
| Cc1c[nH]c2ccccc12 [3-methyl-indole] | 8.16 kJ/mol | 1 kJ/mol | 0.042 kJ/mol | 1.61 | 1.61 | – | 1.29 | 0.76 | 1.29 | 0.76 | -24.6 kJ/mol | -24.6 kJ/mol | 8.37 kJ/mol | 4.27 kJ/mol | 8.37 kJ/mol | 4.27 kJ/mol | 4.27 kJ/mol | 4.14 kJ/mol | -33.8 kJ/mol | -33.8 kJ/mol | hydration error ([9]; predicted vs experimental free energy of hydration): -4.2 kJ/mol |
| CCCCS [1-Butanethiol] | 12.8 kJ/mol | – | – | – | – | – | – | – | – | – | -4.14 kJ/mol | – | 4.81 kJ/mol | 2.09 kJ/mol | – | – | 2.09 kJ/mol | – | – | – | GAFF [13]: -7.03 kJ/mol; AMOEBA [14]: -0.502 kJ/mol; Exp (hydration) ([7]; Table 5, free energy of hydration): -4.14 kJ/mol; Arrow error ([9]; Table 5, error of Arrow PIMD8 hydration free energy vs experiment): 2.09 kJ/mol; AMOEBA error [15]: 3.64 kJ/mol; GAFF error [16]: 2.89 kJ/mol |
| CCC(=O)O [propionicacid] | 8.49 kJ/mol | 0.25 kJ/mol | 0.753 kJ/mol | −2.30 | −2.30 | 4.02 kJ/mol | 0.22 | 0.05 | 0.22 | 0.05 | -27 kJ/mol | -27 kJ/mol | 1 kJ/mol | 1.05 kJ/mol | 1 kJ/mol | 1.05 kJ/mol | 1.05 kJ/mol | 0.628 kJ/mol | -13.9 kJ/mol | -13.9 kJ/mol | PCM free energy of hydration [5]: -18 kJ/mol; SMD free energy of hydration [8]: -23 kJ/mol; PCM Error [10]: 9.04 kJ/mol |
| Cc1c[nH]cn1 [Methylimidazole (His)] | – | 1.38 kJ/mol | 0.38 kJ/mol | – | −3.28 | – | – | – | – | – | – | -42.09 kJ/mol | – | – | 1.67 kJ/mol | 0.13 kJ/mol | – | – | – | -23.4 kJ/mol | logD Arrow MD Error ([6]; Table 4, error of MD logD vs experiment): 0.05; logD Arrow PIMD Error ([6]; Table 4, error of PIMD logD vs experiment): 0.04 |
